Common to all, as to experiment: MIC, standard agar-dilution assay
What all share (assay type): cell-based

The test system of assay [1] is Staphylococcus aureus X1.1. The following applies: Staphylococcus aureus, X1.1, read-out: minimal inhibitory concentration (MIC).
Assay [2] concerns Staphylococcus aureus V41. The conditions noted are these: Staphylococcus aureus, V41; Table IV; penicillin-resistant strain; inducibly erythromycin-resistant; read-out: minimal inhibitory concentration (MIC). From the text: (§1) In addition to excellent in vitro activity against erythromycin-sensitive bacteria, several members of this new series have shown in vitro activity against erythromycin-resistant strains. These include strains which are inducibly-resistant to erythromycin (S. aureus V41 and X400 and S. epidermidis EPI1) and even strains which are constitutively-resistant (S. epidermidis 270).

In assay [3] the test system is Staphylococcus aureus X400. The conditions noted are these: Staphylococcus aureus, X400; Table IV; methicillin-resistant strain; inducibly erythromycin-resistant; read-out: minimal inhibitory concentration (MIC).
Excerpt: as §1

Assay [4] deals with Staphylococcus epidermidis 270. The conditions noted are these: Staphylococcus epidermidis, 270; Table IV; constitutively erythromycin-resistant; read-out: minimal inhibitory concentration (MIC).
Excerpt: as §1

The test system of assay [5] is Staphylococcus epidermidis 222. The conditions noted are these: Staphylococcus epidermidis, 222, read-out: minimal inhibitory concentration (MIC).
Assay [6] relates to Streptococcus pyogenes C203. The following applies: Streptococcus pyogenes, C203, read-out: minimal inhibitory concentration (MIC).
The subject of assay [7] is Streptococcus pneumoniae Park I. The following applies: Streptococcus pneumoniae, read-out: minimal inhibitory concentration (MIC).
The test system of assay [8] is Streptococcus sp. group D X66. The conditions noted are these: Streptococcus, read-out: minimal inhibitory concentration (MIC).
Assay [9] relates to Streptococcus sp. group D 2041. The conditions noted are these: Streptococcus, read-out: minimal inhibitory concentration (MIC).
The subject of assay [10] is Haemophilus influenzae C.L. The following applies: Haemophilus influenzae, read-out: minimal inhibitory concentration (MIC).
In another assay the test system is Escherichia coli EC14. The conditions noted are these: Escherichia coli.
Assay [11] deals with Klebsiella pneumoniae X68. The following applies: Klebsiella pneumoniae.
The subject of assay [12] is Haemophilus influenzae 76. The following applies: Haemophilus influenzae, 76, read-out: minimal inhibitory concentration (MIC).
Setting [13] is: EC14, read-out: minimal inhibitory concentration (MIC).
[14] abbreviates: X68, Table IV, agar dilution, read-out: minimal inhibitory concentration (MIC).
Setting [15] is: EC14, Table IV, agar dilution, read-out: minimal inhibitory concentration (MIC).

≈ marks a conversion by molar mass, not a printed value. Where two headings read alike, the source gives them in different places.

Turning to `CC[C@H]1OC(=O)[C@H](C)[C@@H](O[C@H]2C[C@@](C)(OC)[C@@H](O)[C@H](C)O2)[C@H](C)[C@@H](O[C@@H]2O[C@H](C)C[C@H](N(C)C)[C@H]2O)[C@](C)(O)C[C@@H](C)[C@H](NCCCc2ccccc2)[C@H](C)[C@@H](O)[C@]1(C)O` [Compound 17, (9S)-9-Deoxo-9-[(3-phenylpropyl)amino]erythromycin], the MIC was 1 µg/mL (≈ 1.17 µM) in assay [1]; above 128 µg/mL in assay [2]; above 128 µg/mL in assay [3]; above 128 µg/mL in assay [4]; 0.5 µg/mL (≈ 0.586 µM) in [5]; 0.015 µg/mL (≈ 0.0176 µM) in assay [6]. Moreover, the MIC in assay [7] is 0.015 µg/mL (≈ 0.0176 µM); in [8], 0.06 µg/mL (≈ 0.0703 µM); in assay [9], 2 µg/mL (≈ 2.34 µM); in assay [10], 2 µg/mL (≈ 2.34 µM); with Escherichia coli EC14 (setting [13]), 128 µg/mL (≈ 150 µM); in assay [11] (setting [14]) it was above 128 µg/mL.

As to `CCCCCN[C@@H]1[C@H](C)[C@@H](O)[C@](C)(O)[C@@H](CC)OC(=O)[C@H](C)[C@@H](O[C@H]2C[C@@](C)(OC)[C@@H](O)[C@H](C)O2)[C@H](C)[C@@H](O[C@@H]2O[C@H](C)C[C@H](N(C)C)[C@H]2O)[C@](C)(O)C[C@H]1C` [Compound 5, 9-Deoxo-9-(n-pentylamino)erythromycin], the MIC was above 128 µg/mL in [2]; above 128 µg/mL in assay [3]; above 128 µg/mL in assay [4]; 0.06 µg/mL (≈ 0.0745 µM) in assay [6]; 0.015 µg/mL (≈ 0.0186 µM) in [7]; 0.125 µg/mL (≈ 0.155 µM) in assay [8]. The MIC with Escherichia coli EC14 (setting [13]) stood at 128 µg/mL (≈ 159 µM); in [11] (X68, read-out: minimal inhibitory concentration (MIC)), 128 µg/mL (≈ 159 µM).

Take `CC[C@H]1OC(=O)[C@H](C)[C@@H](O[C@H]2C[C@@](C)(OC)[C@@H](O)[C@H](C)O2)[C@H](C)[C@@H](O[C@@H]2O[C@H](C)C[C@H](N(C)C)[C@H]2O)[C@](C)(O)C[C@@H](C)[C@H](NCCCOC)[C@H](C)[C@@H](O)[C@]1(C)O` [Compound 23, (9S)-9-Deoxo-9-[(3-methoxypropyl)amino]erythromycin]: the MIC was 2 µg/mL (≈ 2.48 µM) in [1]; above 128 µg/mL in [2]; above 128 µg/mL in assay [3]; above 128 µg/mL in assay [4]; 0.5 µg/mL (≈ 0.62 µM) in [5]; 0.125 µg/mL (≈ 0.155 µM) in assay [6]. The MIC in assay [8] was found to be 0.25 µg/mL (≈ 0.31 µM); in [9], 8 µg/mL (≈ 9.91 µM).

For `CCCCN[C@@H]1[C@H](C)[C@@H](O)[C@](C)(O)[C@@H](CC)OC(=O)[C@H](C)[C@@H](O[C@H]2C[C@@](C)(OC)[C@@H](O)[C@H](C)O2)[C@H](C)[C@@H](O[C@@H]2O[C@H](C)C[C@H](N(C)C)[C@H]2O)[C@](C)(O)C[C@H]1C` [Compound 4, 9-Deoxo-9-(n-butylamino)erythromycin], the MIC in [1] is 0.25 µg/mL (≈ 0.316 µM); in assay [2] it was above 128 µg/mL; in assay [3], above 128 µg/mL; in assay [4] it was above 128 µg/mL; in assay [5], 0.25 µg/mL (≈ 0.316 µM); in assay [6], 0.06 µg/mL (≈ 0.0758 µM). The MIC in [7] came to 0.015 µg/mL (≈ 0.019 µM); in assay [8], 0.125 µg/mL (≈ 0.158 µM); in assay [9], 1 µg/mL (≈ 1.26 µM); in assay [10], 1 µg/mL (≈ 1.26 µM); in [12], 1 µg/mL (≈ 1.26 µM).

`CC[C@H]1OC(=O)[C@H](C)[C@@H](O[C@H]2C[C@@](C)(OC)[C@@H](O)[C@H](C)O2)[C@H](C)[C@@H](O[C@@H]2O[C@H](C)C[C@H](N(C)C)[C@H]2O)[C@](C)(O)C[C@@H](C)[C@H](NCCC(C)CCCC(C)(C)OC)[C@H](C)[C@@H](O)[C@]1(C)O` (some centres unmarked) [Compound 24, 9-Deoxo-9-[(7-methoxy-3,7-dimethyloctyl)amino]erythromycin]: the MIC is 0.5 µg/mL (≈ 0.552 µM) in assay [1]; above 128 µg/mL in [4]; 0.25 µg/mL (≈ 0.276 µM) in assay [5]; 0.015 µg/mL (≈ 0.0166 µM) in assay [6]; 2 µg/mL (≈ 2.21 µM) in [9]; 128 µg/mL (≈ 141 µM) in the assay with Escherichia coli EC14 (setting [13]). Also, in assay [11] (setting [14]), the MIC was above 128 µg/mL.

As for `CCCCC/C=C/CCCN[C@@H]1[C@H](C)[C@@H](O)[C@](C)(O)[C@@H](CC)OC(=O)[C@H](C)[C@@H](O[C@H]2C[C@@](C)(OC)[C@@H](O)[C@H](C)O2)[C@H](C)[C@@H](O[C@@H]2O[C@H](C)C[C@H](N(C)C)[C@H]2O)[C@](C)(O)C[C@H]1C` [Compound 14, 9-Deoxo-9-[(trans-dec-4-enyl)amino]erythromycin], the MIC is 0.5 µg/mL (≈ 0.573 µM) in assay [1]; 0.25 µg/mL (≈ 0.286 µM) in [5]; 2 µg/mL (≈ 2.29 µM) in assay [9]; 2 µg/mL (≈ 2.29 µM) in assay [10]; 128 µg/mL (≈ 147 µM) in the assay with Escherichia coli EC14 (setting [13]); above 128 µg/mL in assay [11] (setting [14]).

For the compound `CC[C@H]1OC(=O)[C@H](C)[C@@H](O[C@H]2C[C@@](C)(OC)[C@@H](O)[C@H](C)O2)[C@H](C)[C@@H](O[C@@H]2O[C@H](C)C[C@H](N(C)C)[C@H]2O)[C@](C)(O)C[C@@H](C)[C@H](NC)[C@H](C)[C@@H](O)[C@]1(C)O` [Compound 1, 9-Deoxo-9-(methylamino)erythromycin], the MIC in assay [1] was 1 µg/mL (≈ 1.34 µM); in assay [4] it was above 128 µg/mL; in [5], 0.25 µg/mL (≈ 0.334 µM); in assay [6] it was 0.06 µg/mL (≈ 0.0801 µM); in [8], 0.125 µg/mL (≈ 0.167 µM); in assay [9], 1 µg/mL (≈ 1.34 µM). For the same compound, in assay [12], the MIC was 1 µg/mL (≈ 1.34 µM).

On to `CCCCC/C=C\CCCN[C@@H]1[C@H](C)[C@@H](O)[C@](C)(O)[C@@H](CC)OC(=O)[C@H](C)[C@@H](O[C@H]2C[C@@](C)(OC)[C@@H](O)[C@H](C)O2)[C@H](C)[C@@H](O[C@@H]2O[C@H](C)C[C@H](N(C)C)[C@H]2O)[C@](C)(O)C[C@H]1C` [Compound 13], for which the MIC was 0.25 µg/mL (≈ 0.286 µM) in assay [1]; 0.06 µg/mL (≈ 0.0687 µM) in [8]; 2 µg/mL (≈ 2.29 µM) in assay [10]; 128 µg/mL (≈ 147 µM) with Escherichia coli EC14 (setting [13]); above 128 µg/mL in [11] (setting [14]).

Consider `CCCCCCCCCCCCN[C@@H]1[C@H](C)[C@@H](O)[C@](C)(O)[C@@H](CC)OC(=O)[C@H](C)[C@@H](O[C@H]2C[C@@](C)(OC)[C@@H](O)[C@H](C)O2)[C@H](C)[C@@H](O[C@@H]2O[C@H](C)C[C@H](N(C)C)[C@H]2O)[C@](C)(O)C[C@H]1C` [Compound 10, 9-Deoxo-9-(n-dodecylamino)erythromycin], for which the MIC in assay [7] was 0.06 µg/mL (≈ 0.0664 µM); in assay [8], 1 µg/mL (≈ 1.11 µM); with Escherichia coli EC14 (setting [15]), above 128 µg/mL; in assay [11] (setting [14]) it was above 128 µg/mL.

On to `CCCCCCCCCCN[C@@H]1[C@H](C)[C@@H](O)[C@](C)(O)[C@@H](CC)OC(=O)[C@H](C)[C@@H](O[C@H]2C[C@@](C)(OC)[C@@H](O)[C@H](C)O2)[C@H](C)[C@@H](O[C@@H]2O[C@H](C)C[C@H](N(C)C)[C@H]2O)[C@](C)(O)C[C@H]1C` [Compound 9, 9-Deoxo-9-(n-decylamino)erythromycin], for which the MIC was 1 µg/mL (≈ 1.14 µM) in [1]; 1 µg/mL (≈ 1.14 µM) in assay [5]; 0.015 µg/mL (≈ 0.0171 µM) in [6]; 0.015 µg/mL (≈ 0.0171 µM) in assay [7]; 0.25 µg/mL (≈ 0.286 µM) in [8]; 2 µg/mL (≈ 2.29 µM) in assay [9]. Further, the MIC was 2 µg/mL (≈ 2.29 µM) in assay [10], 1 µg/mL (≈ 1.14 µM) in [12], above 128 µg/mL in the assay on Escherichia coli EC14 (setting [15]) and above 128 µg/mL in [11] (setting [14]).

With `CC[C@H]1OC(=O)[C@H](C)[C@@H](O[C@H]2C[C@@](C)(OC)[C@@H](O)[C@H](C)O2)[C@H](C)[C@@H](O[C@@H]2O[C@H](C)C[C@H](N(C)C)[C@H]2O)[C@](C)(O)C[C@@H](C)[C@H](NCC2CCCCCCC2)[C@H](C)[C@@H](O)[C@]1(C)O` [Compound 16, 9-Deoxo-9-[(cyclooctylmethyl)amino]erythromycin], the MIC is 0.5 µg/mL (≈ 0.582 µM) in [1]; above 128 µg/mL in [4]; 0.25 µg/mL (≈ 0.291 µM) in assay [5]; 1 µg/mL (≈ 1.16 µM) in assay [9]; 1 µg/mL (≈ 1.16 µM) in assay [12]; above 128 µg/mL in assay [11] (setting [14]).

As to `CC[C@H]1OC(=O)[C@H](C)[C@@H](O[C@H]2C[C@@](C)(OC)[C@@H](O)[C@H](C)O2)[C@H](C)[C@@H](O[C@@H]2O[C@H](C)C[C@H](N(C)C)[C@H]2O)[C@](C)(O)C[C@@H](C)[C@H](NCCCSC)[C@H](C)[C@@H](O)[C@]1(C)O` [Compound 26, 9-Deoxo-9-[[3-(methylthio)propyl]amino]erythromycin], the MIC in [2] was above 128 µg/mL; in assay [3], above 128 µg/mL; in assay [4], above 128 µg/mL; in assay [6], 0.015 µg/mL (≈ 0.0182 µM); in assay [7], 0.015 µg/mL (≈ 0.0182 µM); in [8], 0.25 µg/mL (≈ 0.304 µM). The MIC in the assay on Escherichia coli EC14 (setting [13]) was 128 µg/mL (≈ 156 µM); in assay [11] (setting [14]), above 128 µg/mL.
